Where “and” joins values, the source holds several entries; their conditions need not be identical. Equal entries are not always repeated.
What was measured:
[1] = molecular target: Kordia algicida HPPD "SEQ ID No. 5" (FMP27e) (Kordia algicida, UniProt A9DQF2); assay: HPLC assay of HPPD in vitro kinetic properties; assay type: biochemical
Experimental: Km, Vmax, and kcat values for different HPPD enzyme preparations and Ki, K1=Kon, and K−1=Koff for different HPPD inhibitors were determined using a HPLC assay for measurements of HPPD activity. […] All assays were started by the addition of HPPD enzyme to the assay mixture and stopped at a series of times between 0 and 240 s by addition of 200 μl of the reaction mixture to reaction assay tubes containing 20 μl 10% perchloric acid. Precipitated protein was pelleted by a 5 minute centrifugation at 10,000 g.
For Km and Vmax value determinations the initial rates of the HPPD reaction at different substrate concentrations were determined from plots of HGA formed versus time and fitted to the Michaelis-Menten equation for unireactant enzymes using the ID Business Solutions Ltd. (idbs.com) XLfit software suite.

[2] = test system: tobacco plants containing FMP27t-h, PAT and 2mEPSPS (pFCO116); assay: Glasshouse response of three-tolerance-gene tobacco to herbicides, injury classes; assay type: in vivo, Nicotiana tobacum; details: 100 g AI/ha, 9 DAT
Experimental: A binary vector for tobacco transformation is, for example, constructed with the CaMV35 promoter driving the expression of the gene FMP27t-h (SEQ ID No. 15), with a codon usage optimized for the expression in dicotyledoneous plants and at its 5′extremity was added a sequence coding for an OTP, and further upstream a sequence TEV (Tobacco etch virus) to improve the stability of the mRNA in plants followed by the CaMV35S terminator. The nucleotide sequence of the gene FMP27t-h is given in SEQ ID No. 15. Additionally, the transformation vector also contains a PAT gene cassette in which the gene is driven by a CaVM35S promoter and followed by a CaMV35S terminator for glufosinate based selection during the transformation process and a 2mEPSPS gene cassette in which the gene is driven by an histone promoter from Arabidopsis to confer tolerance to the herbicide glyphosate to the transformed plants (see FIG. 3 H). The binary vector was called pFCO116. The above vector was used to transform leaf disc obtained from Nicotiana tobacum plants, according to Example 3.
Transgenic tobacco plants were transferred to the greenhouse and treated with glyphosate at a rate of 1121 g AI/ha. Seeds were produced from such tolerant tobacco plants and harvested. These seeds were put on soil to germinate in the glasshouse. Three to four weeks later, 50 plantlets per event were transferred to single pots. Two weeks later, plants of a size 4-6 cm were sprayed either with
[…] […] Non-transgenic tobacco plants were completely killed by treatment using one or more of the above herbicides.

[3] = test system: tobacco calli containing SEQ ID No. 7 (Kordia algicida HPPD); assay: Rooting of calli on tembotrione media; assay type: cell-based, Nicotiana tabacum; details: 6 to 12 weeks, calli with SEQ ID No. 7
Experimental: (§1) The leaf disks were co-cultivated for 2 days with Agrobacterium tumefaciens cells containing either the binary vector FMP27ebv or AtHPPDbv. Then the leaf disks were transferred to a media allowing the regeneration of shoots for 6 weeks on MS (Musharige and Skoog, (1962), Physiol Plant 15(3): 473-497) media supplemented with BAP (1 mg/mL; Benzylaminopurine), carbenicillin (250 mg/mL), cefotaxine (250 mg/mL), kanamycin (75 mg/mL) and tembotrione (10^−6 M)
(§2) Regenerated calli were transferred on media to induce the development of roots for 6 to 12 weeks: MS (1/2), supplemented with carbenicillin (250 mg/mL), cefotaxine (250 mg/mL), kanamycin (75 mg/mL), and tembotrione (10^−6 M).
(§3) Regenerated shoot calli from a cell transformed with a nucleic acid sequence encoding an HPPD comprising SEQ ID No. 11 (Arabidopsis thaliana) or SEQ ID No. 7 (Kordia algicida) were transferred to a media inducing root growth which media was further supplemented with the HPPD inhibitor tembotrione for 6 to 12 weeks.

[4] = test system: tobacco calli containing SEQ ID No. 11 (Arabidopsis thaliana HPPD); assay: Rooting of calli on tembotrione media; assay type: cell-based, Nicotiana tabacum; details: 6 to 12 weeks, calli with SEQ ID No. 11
Experimental: as §1, §2, §3

[5] = test system: T1 tobacco plants containing FMP27e (Kordia algicida HPPD FMP27); assay: Glasshouse spray trial, % injury; assay type: in vivo, Nicotiana tabacum; details: 7DAT, 100 gAI/ha spray
Experimental: (§4) T0 Tobacco plants containing either the gene from Arabidopsis coding for HPPD or the gene FMP27e from Kordia algicida coding for FMP27 HPPD, mentioned above (Example 3), were transferred to the glasshouse (28/20° C.), to develop further and produce seeds. Those seeds were harvested and put on soil (ED73 mixed with sand and osmocote Pro) to germinate in the glasshouse (28/20° C.). Three to four weeks later, plantlets were transferred to single pots containing the soil mentioned above. Two weeks later, plants of a size 4-6 cm diameter were sprayed with either • tembotrione at 100 gAI/ha prepared from a WP20 (wettable powder 20%) formulation supplemented with ammonium sulfate and methyl ester raps oil, or • isoxaflutole at 100 gAI/ha prepared from a WP20 formulation supplemented with ammonium sulfate and methyl ester raps oil, or • bicyclopyrone at 100 gAI/ha prepared from a WP20 formulation supplemented with ammonium sulfate and methyl ester raps oil, or • “blind formulation” made from a WP20 formulation without active ingredient (AI) supplemented with ammonium sulfate and methyl ester raps oil, and were then transferred to a growth chamber with adequate light conditions (20000 Lux).
(§5) Table 6: Wild type tobacco plants (A) and T1 populations of tobacco events containing alternatively, the expression cassettes described above having the promoter CaMV 35S, the sequence coding for OTP and the sequence coding for Arabidopsis HPPD (B) or the promoter CaMV35S, the sequence encoding OTP, and the sequence FMP27e coding for the HPPD FMP27 (C). Assessments of herbicidal damage at 7 days after application (DAT) per spray with 100 g AI/ha of tembotrione or isoxaflutole supplemented with ammonium sulfate and methyl ester raps oil. […] Plants belonging to categories (B) and (C) have not been selected for the presence of the respective transgene prior to the herbicide application.

wild type tobacco plants = assay: Glasshouse spray trial, % injury; assay type: in vivo, Nicotiana tabacum; details: 7DAT, 100 gAI/ha spray; individual WT plants; 100% = bleaching as wild type
Experimental: as §4, §5

[6] = test system: T1 tobacco plants containing Arabidopsis HPPD; assay: Glasshouse spray trial, % injury; assay type: in vivo, Nicotiana tabacum; details: 7DAT, 100 gAI/ha spray
Experimental: as §4, §5

Chain of Kordia algicida HPPD "SEQ ID No. 5" (FMP27e) (A9DQF2 entry or part of it): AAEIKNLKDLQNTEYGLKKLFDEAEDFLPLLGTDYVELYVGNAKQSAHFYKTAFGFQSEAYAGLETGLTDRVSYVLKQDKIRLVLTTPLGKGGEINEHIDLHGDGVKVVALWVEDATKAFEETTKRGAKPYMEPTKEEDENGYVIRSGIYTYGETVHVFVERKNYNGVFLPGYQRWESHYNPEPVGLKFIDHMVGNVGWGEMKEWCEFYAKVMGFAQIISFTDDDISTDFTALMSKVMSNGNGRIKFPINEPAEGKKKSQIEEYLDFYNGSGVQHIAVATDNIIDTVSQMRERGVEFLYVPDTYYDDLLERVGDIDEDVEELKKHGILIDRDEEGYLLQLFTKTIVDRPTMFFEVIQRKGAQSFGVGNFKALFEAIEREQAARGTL

## CS(=O)(=O)c1ccc(C(=O)C2C(=O)CCCC2=O)c(Cl)c1COCC(F)(F)F [Tembotrione, 2-[2-chloro-4-(methylsulfonyl)-3-[(2,2,2,-tri-fluoroethoxy)methyl]benzoyl]-1,3-cyclo-hexanedione]
[1]
  Ki: 33 µM
[1]; read-out: k1 (=Kon)
  kon: 490 M⁻¹ s⁻¹
[1]; read-out: k−1 (=Koff)
  koff: 0.016 s⁻¹
[2]; line 639
  Class I, number of plants (no injuries): 7
  Class II, number of plants (injury: 10-40%): 3
  Class III, number of plants (injury: 41-100%): 0
[2]; line 714
  Class I, number of plants (no injuries): 5
  Class II, number of plants (injury: 10-40%): 1
  Class III, number of plants (injury: 41-100%): 4
[2]; line 717
  Class I, number of plants (no injuries): 4
  Class II, number of plants (injury: 10-40%): 2
  Class III, number of plants (injury: 41-100%): 4
[3]
  % Elongation & rooting on 10^−6M tembotrione: 62%
[4]
  % Elongation & rooting on 10^−6M tembotrione: 0%
[5]; line 121, individual T1 plants
  % injury: 0% (4×) and 5% (3×) and 10% (6×)
[5]; line 129, individual T1 plants
  % injury: 0% (2×) and 5% (2×) and 10% (2×) and 15% (2×) and 30% (2×)
[5]; line 218, individual T1 plants
  % injury: 0% (11×) and 5% (4×)
Wild type tobacco plants
  % injury: 100%
[6]; line 252, individual T1 plants
  % injury: 30% and 40% (3×) and 50% and 60% (2×) and 70% (2×) and 75% (3×) and 80%
[6]; line 258, individual T1 plants
  % injury: 100% (5×) and 30%
[6]; line 327, individual T1 plants
  % injury: 10% and 20% (2×) and 40% and 50% (2×) and 70% (5×) and 80% (4×)

From patent US20150159169A1, “Plants Tolerant to HPPD Inhibitor Herbicides” (Bayer CropScience AG, priority 2009, published 2015)
